Measurements reported in the kinase profiling compilation of Christmann-Franck et al. (2016).

Legend:
Assay in all cases: KINOMEscan competition binding
Settings in all cases: compound 10.0 µM
[1] = target: TYK2 JH1 catalytic (human) (UniProt P29597)
[2] = target: MARK4 (human) (UniProt Q96L34)
[3] = target: PAK7 (human) (UniProt Q9P286)
[4] = target: AKT1 (human) (UniProt P31749)
[5] = target: MAPK3 (human) (UniProt P27361)
[6] = target: CDK11B (human) (UniProt P21127)
[7] = target: SRPK3 (human) (UniProt Q9UPE1)
[8] = target: MAP3K3 (human) (UniProt Q99759)
[9] = target: CSNK1G3 (human) (UniProt Q9Y6M4)
[10] = target: RPS6KA5 KD1 (human) (UniProt O75582)
[11] = target: PRKD3 (human) (UniProt O94806)
[12] = target: DMPK (human) (UniProt Q09013)
[13] = target: CAMK1D (human) (UniProt Q8IU85)
[14] = target: PRKACA (human) (UniProt P17612)
[15] = target: MAP4K5 (human) (UniProt Q9Y4K4)
[16] = target: STK36 (human) (UniProt Q9NRP7)
Sequence of STK36 (human) (Q9NRP7 whole entry, looked up): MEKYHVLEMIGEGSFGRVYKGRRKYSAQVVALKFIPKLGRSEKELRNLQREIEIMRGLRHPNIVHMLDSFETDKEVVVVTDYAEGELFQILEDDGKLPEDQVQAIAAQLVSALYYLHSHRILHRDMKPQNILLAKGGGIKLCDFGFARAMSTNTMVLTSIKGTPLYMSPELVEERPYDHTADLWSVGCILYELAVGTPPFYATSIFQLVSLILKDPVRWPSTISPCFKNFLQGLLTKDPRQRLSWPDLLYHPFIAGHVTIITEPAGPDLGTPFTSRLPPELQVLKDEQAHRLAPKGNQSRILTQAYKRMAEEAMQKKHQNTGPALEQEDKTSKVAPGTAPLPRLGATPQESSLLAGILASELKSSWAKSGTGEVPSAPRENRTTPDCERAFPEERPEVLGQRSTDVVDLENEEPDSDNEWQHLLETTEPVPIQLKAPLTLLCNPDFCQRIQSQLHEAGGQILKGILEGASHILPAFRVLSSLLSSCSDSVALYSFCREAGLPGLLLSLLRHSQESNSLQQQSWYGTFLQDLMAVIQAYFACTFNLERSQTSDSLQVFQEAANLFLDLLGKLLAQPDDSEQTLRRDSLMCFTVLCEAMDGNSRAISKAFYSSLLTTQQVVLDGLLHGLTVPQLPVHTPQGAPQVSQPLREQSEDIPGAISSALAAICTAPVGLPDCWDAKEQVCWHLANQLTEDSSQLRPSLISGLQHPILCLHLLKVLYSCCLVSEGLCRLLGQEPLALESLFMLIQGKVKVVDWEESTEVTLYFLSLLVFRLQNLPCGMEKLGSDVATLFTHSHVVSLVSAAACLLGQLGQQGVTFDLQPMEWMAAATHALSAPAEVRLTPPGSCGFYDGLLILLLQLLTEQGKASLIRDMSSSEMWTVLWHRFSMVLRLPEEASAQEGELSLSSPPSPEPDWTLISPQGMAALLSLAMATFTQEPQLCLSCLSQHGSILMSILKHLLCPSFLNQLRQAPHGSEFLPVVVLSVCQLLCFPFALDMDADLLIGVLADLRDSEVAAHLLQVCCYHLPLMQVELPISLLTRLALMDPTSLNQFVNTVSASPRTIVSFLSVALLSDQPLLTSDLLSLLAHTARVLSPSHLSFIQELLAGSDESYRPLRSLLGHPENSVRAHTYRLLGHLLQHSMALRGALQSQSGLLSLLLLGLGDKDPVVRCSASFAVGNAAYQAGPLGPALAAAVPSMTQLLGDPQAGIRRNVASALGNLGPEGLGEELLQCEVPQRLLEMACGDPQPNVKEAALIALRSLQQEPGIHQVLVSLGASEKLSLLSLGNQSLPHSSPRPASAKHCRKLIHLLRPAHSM

[17] = target: PRKAA2 (human) (UniProt P54646)
[18] = target: STK35 (human) (UniProt Q8TDR2)
[19] = target: SRPK1 (human) (UniProt Q96SB4)
[20] = target: ROS1 (human) (UniProt P08922)
[21] = target: WEE1 (human) (UniProt P30291)
[22] = target: PAK6 (human) (UniProt Q9NQU5)
[23] = test system: KIT (human), P10721 [D816V]
[24] = target: FRK (human) (UniProt P42685)
Sequence of FRK (human) (P42685 whole entry, looked up): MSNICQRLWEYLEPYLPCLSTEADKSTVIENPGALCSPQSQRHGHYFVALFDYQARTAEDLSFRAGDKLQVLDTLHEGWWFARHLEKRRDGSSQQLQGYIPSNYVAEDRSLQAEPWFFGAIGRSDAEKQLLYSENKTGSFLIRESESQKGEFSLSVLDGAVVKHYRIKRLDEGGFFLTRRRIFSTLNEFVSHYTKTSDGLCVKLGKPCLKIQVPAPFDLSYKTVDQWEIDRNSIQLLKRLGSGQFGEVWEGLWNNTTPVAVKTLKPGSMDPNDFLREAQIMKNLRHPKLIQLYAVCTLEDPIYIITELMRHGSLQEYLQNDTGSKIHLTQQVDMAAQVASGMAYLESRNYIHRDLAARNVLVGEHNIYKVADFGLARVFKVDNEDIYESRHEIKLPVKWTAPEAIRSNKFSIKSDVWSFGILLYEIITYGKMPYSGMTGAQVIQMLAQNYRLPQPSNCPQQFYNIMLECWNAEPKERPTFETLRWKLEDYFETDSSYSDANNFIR

[25] = target: CSNK1G2 (human) (UniProt P78368)
[26] = target: AURKA (human) (UniProt O14965)
[27] = target: ACVR1B (human) (UniProt P36896)
[28] = target: INSR (human) (UniProt P06213)
Sequence of INSR (human) (P06213 whole entry, looked up): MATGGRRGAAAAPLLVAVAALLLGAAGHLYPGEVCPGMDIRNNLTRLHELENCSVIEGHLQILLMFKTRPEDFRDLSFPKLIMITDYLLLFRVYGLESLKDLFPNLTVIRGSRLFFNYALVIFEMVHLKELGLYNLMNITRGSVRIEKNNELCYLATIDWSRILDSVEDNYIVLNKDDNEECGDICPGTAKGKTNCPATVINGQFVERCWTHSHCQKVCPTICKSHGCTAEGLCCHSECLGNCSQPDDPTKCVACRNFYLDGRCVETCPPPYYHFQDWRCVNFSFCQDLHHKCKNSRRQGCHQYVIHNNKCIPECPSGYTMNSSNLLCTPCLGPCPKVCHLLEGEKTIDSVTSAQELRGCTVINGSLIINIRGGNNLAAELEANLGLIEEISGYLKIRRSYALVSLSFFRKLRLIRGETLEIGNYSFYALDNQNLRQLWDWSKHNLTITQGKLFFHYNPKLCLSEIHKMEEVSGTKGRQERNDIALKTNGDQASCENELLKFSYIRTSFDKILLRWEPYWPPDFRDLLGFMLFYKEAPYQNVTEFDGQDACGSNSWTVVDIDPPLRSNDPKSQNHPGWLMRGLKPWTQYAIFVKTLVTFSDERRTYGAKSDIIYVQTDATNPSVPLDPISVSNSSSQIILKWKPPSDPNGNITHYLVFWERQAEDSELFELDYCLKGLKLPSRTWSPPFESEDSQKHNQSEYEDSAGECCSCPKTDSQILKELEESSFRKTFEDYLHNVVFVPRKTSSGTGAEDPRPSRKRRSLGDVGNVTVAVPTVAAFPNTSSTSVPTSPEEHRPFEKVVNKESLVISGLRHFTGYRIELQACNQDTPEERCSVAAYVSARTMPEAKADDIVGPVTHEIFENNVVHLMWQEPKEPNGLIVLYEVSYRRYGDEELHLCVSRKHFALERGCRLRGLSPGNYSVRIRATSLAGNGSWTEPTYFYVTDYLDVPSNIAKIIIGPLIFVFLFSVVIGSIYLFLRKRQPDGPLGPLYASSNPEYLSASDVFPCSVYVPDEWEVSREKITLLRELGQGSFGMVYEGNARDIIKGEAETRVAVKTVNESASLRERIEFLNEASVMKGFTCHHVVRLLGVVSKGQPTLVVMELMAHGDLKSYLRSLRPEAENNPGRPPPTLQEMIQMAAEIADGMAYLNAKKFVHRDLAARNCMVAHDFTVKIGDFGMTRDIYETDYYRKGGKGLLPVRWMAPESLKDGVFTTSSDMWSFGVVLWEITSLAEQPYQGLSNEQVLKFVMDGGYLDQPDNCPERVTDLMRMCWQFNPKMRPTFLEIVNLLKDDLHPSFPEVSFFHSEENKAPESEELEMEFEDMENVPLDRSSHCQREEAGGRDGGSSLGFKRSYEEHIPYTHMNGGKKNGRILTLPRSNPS

[29] = target: FGFR2 (human) (UniProt P21802)
[30] = target: EPHA1 (human) (UniProt P21709)
[31] = target: CDK18 (human) (UniProt Q07002)
Sequence of CDK18 (human) (Q07002 whole entry, looked up): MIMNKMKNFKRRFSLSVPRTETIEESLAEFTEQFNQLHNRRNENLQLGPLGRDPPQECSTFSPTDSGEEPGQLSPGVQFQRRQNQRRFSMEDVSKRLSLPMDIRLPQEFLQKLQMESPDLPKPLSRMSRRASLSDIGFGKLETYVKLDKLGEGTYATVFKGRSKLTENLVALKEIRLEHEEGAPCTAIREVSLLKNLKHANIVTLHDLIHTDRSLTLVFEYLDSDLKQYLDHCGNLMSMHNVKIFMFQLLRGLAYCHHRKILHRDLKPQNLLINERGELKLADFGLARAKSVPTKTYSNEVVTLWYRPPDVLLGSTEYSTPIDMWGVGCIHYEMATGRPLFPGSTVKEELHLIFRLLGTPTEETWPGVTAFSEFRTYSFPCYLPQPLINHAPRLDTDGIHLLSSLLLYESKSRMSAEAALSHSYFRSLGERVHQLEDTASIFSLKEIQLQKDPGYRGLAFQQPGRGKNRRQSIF

[32] = target: MAP2K3 (human) (UniProt P46734)
[33] = target: NLK (human) (UniProt Q9UBE8)
[34] = target: RIOK3 (human) (UniProt O14730)
[35] = target: CDK7 (human) (UniProt P50613)
[36] = target: EPHB3 (human) (UniProt P54753)
[37] = target: MST1R (human) (UniProt Q04912)
[38] = target: NUAK2 (human) (UniProt Q9H093)
[39] = target: MST4 (human) (UniProt Q9P289)
[40] = target: MAP2K2 (human) (UniProt P36507)
Sequence of MAP2K2 (human) (P36507 whole entry, looked up): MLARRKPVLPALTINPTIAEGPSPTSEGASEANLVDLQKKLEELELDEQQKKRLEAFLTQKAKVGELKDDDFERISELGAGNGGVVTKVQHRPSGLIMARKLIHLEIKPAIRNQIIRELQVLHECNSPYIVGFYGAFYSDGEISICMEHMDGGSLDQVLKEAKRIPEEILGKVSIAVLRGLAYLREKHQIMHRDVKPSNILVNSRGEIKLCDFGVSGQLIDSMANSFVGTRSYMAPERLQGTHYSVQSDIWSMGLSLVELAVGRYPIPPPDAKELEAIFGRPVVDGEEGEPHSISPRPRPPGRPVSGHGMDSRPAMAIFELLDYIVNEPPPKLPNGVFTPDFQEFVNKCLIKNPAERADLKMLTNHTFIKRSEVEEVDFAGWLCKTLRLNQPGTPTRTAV

Sequence of PAK7 (human) (Q9P286 whole entry, looked up): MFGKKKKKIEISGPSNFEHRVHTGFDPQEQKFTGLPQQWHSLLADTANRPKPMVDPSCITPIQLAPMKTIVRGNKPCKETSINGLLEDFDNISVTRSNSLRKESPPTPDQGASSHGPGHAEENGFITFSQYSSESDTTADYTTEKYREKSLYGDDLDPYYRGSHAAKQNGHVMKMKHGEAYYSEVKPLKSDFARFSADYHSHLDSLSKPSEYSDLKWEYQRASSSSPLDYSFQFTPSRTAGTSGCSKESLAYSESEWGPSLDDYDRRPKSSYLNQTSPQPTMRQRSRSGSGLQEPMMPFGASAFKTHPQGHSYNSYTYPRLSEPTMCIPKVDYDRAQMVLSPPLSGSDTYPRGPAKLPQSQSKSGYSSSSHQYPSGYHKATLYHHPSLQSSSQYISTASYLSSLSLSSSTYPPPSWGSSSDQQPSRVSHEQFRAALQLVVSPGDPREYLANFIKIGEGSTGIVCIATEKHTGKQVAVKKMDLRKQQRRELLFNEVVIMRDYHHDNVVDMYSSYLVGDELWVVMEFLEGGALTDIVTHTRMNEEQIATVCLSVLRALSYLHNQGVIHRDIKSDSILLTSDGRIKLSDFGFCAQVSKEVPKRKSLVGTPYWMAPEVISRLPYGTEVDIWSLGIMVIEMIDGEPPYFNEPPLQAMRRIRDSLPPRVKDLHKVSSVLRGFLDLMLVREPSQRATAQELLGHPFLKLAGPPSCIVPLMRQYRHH

SMILES	kinase still bound, per cent of control [1] [%]	kinase still bound, per cent of control [2] [%]	kinase still bound, per cent of control [3] [%]	kinase still bound, per cent of control [4] [%]	kinase still bound, per cent of control [5] [%]	kinase still bound, per cent of control [6] [%]	kinase still bound, per cent of control [7] [%]	kinase still bound, per cent of control [8] [%]	kinase still bound, per cent of control [9] [%]	kinase still bound, per cent of control [10] [%]	kinase still bound, per cent of control [11] [%]	kinase still bound, per cent of control [12] [%]	kinase still bound, per cent of control [13] [%]	kinase still bound, per cent of control [14] [%]	kinase still bound, per cent of control [15] [%]	kinase still bound, per cent of control [16] [%]	kinase still bound, per cent of control [17] [%]	kinase still bound, per cent of control [18] [%]	kinase still bound, per cent of control [19] [%]	kinase still bound, per cent of control [20] [%]	further results
C=CC(=O)Nc1cccc(Oc2nc(Nc3ccc(N4CCN(C)CC4)cc3OC)ncc2Cl)c1	100	16	100	100	100	100	8.4	100	100	100	10	17	27	100	100	100	100	100	21	5	kinase still bound, per cent of control [21]: 100%; kinase still bound, per cent of control [22]: 100%; kinase still bound, per cent of control [23]: 13%; kinase still bound, per cent of control [24]: 28%; kinase still bound, per cent of control [25]: 100%; kinase still bound, per cent of control [26]: 28%; kinase still bound, per cent of control [27]: 100%; kinase still bound, per cent of control [28]: 17%; kinase still bound, per cent of control [29]: 100%; kinase still bound, per cent of control [30]: 100%; kinase still bound, per cent of control [31]: 100%; kinase still bound, per cent of control [32]: 100%; kinase still bound, per cent of control [33]: 100%; kinase still bound, per cent of control [34]: 20%; kinase still bound, per cent of control [35]: 35%; kinase still bound, per cent of control [36]: 100%; kinase still bound, per cent of control [37]: 100%; kinase still bound, per cent of control [38]: 0.3%; kinase still bound, per cent of control [39]: 100%; kinase still bound, per cent of control [40]: 100%
COc1cc(C(=O)NC2CCN(C)CC2)ccc1Nc1ncc2c(n1)N(C1CCCC1)CCC(=O)N2C(C)C	100	0	100	100	100	100	100	100	100	100	100	100	100	100	100	100	100	100	0	100	kinase still bound, per cent of control [21]: 100%; kinase still bound, per cent of control [22]: 100%; kinase still bound, per cent of control [23]: 100%; kinase still bound, per cent of control [24]: 100%; kinase still bound, per cent of control [25]: 100%; kinase still bound, per cent of control [26]: 100%; kinase still bound, per cent of control [27]: 100%; kinase still bound, per cent of control [28]: 100%; kinase still bound, per cent of control [29]: 100%; kinase still bound, per cent of control [30]: 100%; kinase still bound, per cent of control [31]: 100%; kinase still bound, per cent of control [32]: 100%; kinase still bound, per cent of control [33]: 100%; kinase still bound, per cent of control [34]: 100%; kinase still bound, per cent of control [35]: 100%; kinase still bound, per cent of control [36]: 100%; kinase still bound, per cent of control [37]: 100%; kinase still bound, per cent of control [38]: 100%; kinase still bound, per cent of control [39]: 100%; kinase still bound, per cent of control [40]: 100%
Nc1ccc(-c2ccc3ncc4ccc(=O)n(-c5cccc(C(F)(F)F)c5)c4c3c2)cn1	85	100	69	100	100	100	95	84	63	100	100	95	100	100	100	99	95	92	100	82	kinase still bound, per cent of control [21]: 100%; kinase still bound, per cent of control [22]: 100%; kinase still bound, per cent of control [23]: 61%; kinase still bound, per cent of control [24]: 100%; kinase still bound, per cent of control [25]: 100%; kinase still bound, per cent of control [26]: 100%; kinase still bound, per cent of control [27]: 96%; kinase still bound, per cent of control [28]: 59%; kinase still bound, per cent of control [29]: 90%; kinase still bound, per cent of control [30]: 93%; kinase still bound, per cent of control [31]: 100%; kinase still bound, per cent of control [32]: 66%; kinase still bound, per cent of control [33]: 86%; kinase still bound, per cent of control [34]: 100%; kinase still bound, per cent of control [35]: 51%; kinase still bound, per cent of control [36]: 100%; kinase still bound, per cent of control [37]: 90%; kinase still bound, per cent of control [38]: 46%; kinase still bound, per cent of control [39]: 73%; kinase still bound, per cent of control [40]: 100%
